Measured values published in PubChem BioAssay (NCI).
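Five compound concentrations were applied to cells in 96-well plates for 48 hours; endpoints were derived by simple linear interpolation of the resulting dose-response curve. TGI: concentration producing complete growth inhibition.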

Tests used:
Test in all cases: DTP human tumour cell line panel, 48 h
CCRF-CEM leukemia = tested on: CCRF-CEM leukemia
TK-10 renal = tested on: TK-10 renal
UACC-62 melanoma = tested on: UACC-62 melanoma
KM12 colon = tested on: KM12 colon
SK-OV-3 ovarian = tested on: SK-OV-3 ovarian
MOLT-4 leukemia = tested on: MOLT-4 leukemia
EKVX NSCLC = tested on: EKVX NSCLC
SK-MEL-28 melanoma = tested on: SK-MEL-28 melanoma
RPMI-8226 leukemia = tested on: RPMI-8226 leukemia
NCI-H226 lung = tested on: NCI-H226 lung
UACC-257 melanoma = tested on: UACC-257 melanoma
OVCAR-5 ovarian = tested on: OVCAR-5 ovarian
SR leukemia = tested on: SR leukemia
HS 578T breast = tested on: HS 578T breast
MDA-MB-435 = tested on: MDA-MB-435
BT-549 breast = tested on: BT-549 breast

Cc1cc(N(CCC#N)CCC#N)ccc1/C=C/C(=O)Nc1cccc(Cl)c1
TGI (CCRF-CEM leukemia): > 100 µM
TGI (TK-10 renal): > 100 µM
TGI (UACC-62 melanoma): > 100 µM
TGI (KM12 colon): > 100 µM
TGI (SK-OV-3 ovarian): > 100 µM
TGI (MOLT-4 leukemia): > 100 µM
TGI (EKVX NSCLC): > 100 µM
TGI (SK-MEL-28 melanoma): > 100 µM
TGI (RPMI-8226 leukemia): > 100 µM
TGI (NCI-H226 lung): > 100 µM
TGI (UACC-257 melanoma): > 100 µM
TGI (OVCAR-5 ovarian): > 100 µM

CCOc1ccc2nc(NC(=O)c3c/c(=N\NC(=O)C[N+](C)(C)C)c4ccc(O)cc4o3)sc2c1
TGI (CCRF-CEM leukemia): 5.96 µM
TGI (SR leukemia): 17.3 µM
TGI (TK-10 renal): 36.5 µM
TGI (UACC-62 melanoma): 3.21 µM
TGI (KM12 colon): 19.2 µM
TGI (SK-OV-3 ovarian): 25.2 µM
TGI (MOLT-4 leukemia): 5.74 µM
TGI (EKVX NSCLC): 11.9 µM
TGI (SK-MEL-28 melanoma): 13 µM
TGI (RPMI-8226 leukemia): 8.31 µM
TGI (NCI-H226 lung): 12 µM
TGI (UACC-257 melanoma): 3.16 µM
TGI (OVCAR-5 ovarian): 7.3 µM

COc1cc(OC)c(OC)cc1/C=N/N=C(\N)NO
TGI (CCRF-CEM leukemia): > 100 µM
TGI (SR leukemia): > 100 µM
TGI (TK-10 renal): > 100 µM
TGI (UACC-62 melanoma): > 100 µM
TGI (HS 578T breast): > 100 µM
TGI (KM12 colon): > 100 µM
TGI (SK-OV-3 ovarian): > 100 µM
TGI (MOLT-4 leukemia): > 100 µM
TGI (EKVX NSCLC): > 100 µM
TGI (MDA-MB-435): > 100 µM
TGI (SK-MEL-28 melanoma): > 100 µM
TGI (RPMI-8226 leukemia): > 100 µM
TGI (NCI-H226 lung): > 100 µM
TGI (UACC-257 melanoma): > 100 µM
TGI (OVCAR-5 ovarian): > 100 µM

CCOC1(COP(=O)(OCc2ccccc2)OCc2ccccc2)COC(COP(=O)(OCc2ccccc2)OCc2ccccc2)(OCC)CO1 (centres undefined)
TGI (CCRF-CEM leukemia): > 100 µM
TGI (SR leukemia): > 100 µM
TGI (TK-10 renal): > 100 µM
TGI (UACC-62 melanoma): > 100 µM
TGI (KM12 colon): > 100 µM
TGI (SK-OV-3 ovarian): > 100 µM
TGI (MOLT-4 leukemia): > 100 µM
TGI (EKVX NSCLC): 9.43 µM
TGI (SK-MEL-28 melanoma): > 100 µM
TGI (RPMI-8226 leukemia): > 100 µM
TGI (NCI-H226 lung): > 100 µM
TGI (UACC-257 melanoma): > 100 µM
TGI (OVCAR-5 ovarian): > 100 µM

N#CC(C#N)=Cc1ccc2c(c1)OC(Cl)O2 (centres undefined)
TGI (CCRF-CEM leukemia): > 100 µM
TGI (TK-10 renal): 68.1 µM
TGI (UACC-62 melanoma): 59.3 µM
TGI (KM12 colon): 39.9 µM
TGI (SK-OV-3 ovarian): 61.5 µM
TGI (MOLT-4 leukemia): > 100 µM
TGI (EKVX NSCLC): 79.5 µM
TGI (MDA-MB-435): 35.7 µM
TGI (SK-MEL-28 melanoma): 36.9 µM
TGI (RPMI-8226 leukemia): > 100 µM
TGI (NCI-H226 lung): 38.2 µM
TGI (UACC-257 melanoma): 41 µM
TGI (OVCAR-5 ovarian): 37.1 µM

CCOC(=O)/C(C(=S)Nc1ccccc1)=C(/N)N1CCCC1
TGI (CCRF-CEM leukemia): > 100 µM
TGI (SR leukemia): > 100 µM
TGI (TK-10 renal): > 100 µM
TGI (UACC-62 melanoma): > 100 µM
TGI (HS 578T breast): > 100 µM
TGI (KM12 colon): > 100 µM
TGI (MOLT-4 leukemia): > 100 µM
TGI (EKVX NSCLC): > 100 µM
TGI (MDA-MB-435): > 100 µM
TGI (SK-MEL-28 melanoma): > 100 µM
TGI (RPMI-8226 leukemia): > 100 µM
TGI (NCI-H226 lung): > 100 µM
TGI (UACC-257 melanoma): > 100 µM
TGI (OVCAR-5 ovarian): > 100 µM

CNC(=O)N1CN(c2ccccc2)C2(CCN(CCCC(=O)c3ccc(F)cc3)CC2)C1=O
TGI (CCRF-CEM leukemia): 70.8 µM
TGI (SR leukemia): 69.7 µM
TGI (TK-10 renal): 49.5 µM
TGI (UACC-62 melanoma): 43.4 µM
TGI (KM12 colon): 45.9 µM
TGI (SK-OV-3 ovarian): 79.9 µM
TGI (MOLT-4 leukemia): 33.6 µM
TGI (EKVX NSCLC): 52.5 µM
TGI (SK-MEL-28 melanoma): 38.4 µM
TGI (RPMI-8226 leukemia): 34 µM
TGI (NCI-H226 lung): 79.4 µM
TGI (UACC-257 melanoma): 24.2 µM
TGI (OVCAR-5 ovarian): 29 µM

CC(=O)Nc1ccccc1SCCSSCCSc1ccccc1NC(C)=O
TGI (CCRF-CEM leukemia): 70.4 µM
TGI (SR leukemia): > 100 µM
TGI (TK-10 renal): > 100 µM
TGI (UACC-62 melanoma): > 100 µM
TGI (KM12 colon): > 100 µM
TGI (SK-OV-3 ovarian): 61.7 µM
TGI (MOLT-4 leukemia): > 100 µM
TGI (EKVX NSCLC): > 100 µM
TGI (MDA-MB-435): 41.1 µM
TGI (RPMI-8226 leukemia): 42.2 µM
TGI (NCI-H226 lung): 81.8 µM
TGI (BT-549 breast): > 100 µM
TGI (UACC-257 melanoma): 45 µM
TGI (OVCAR-5 ovarian): 79.2 µM

COC(=O)[C@@H]1CN(C(=O)CCc2ccccc2)C(=O)N1C(=O)OCc1ccccc1
TGI (CCRF-CEM leukemia): > 100 µM
TGI (SR leukemia): > 100 µM
TGI (TK-10 renal): > 100 µM
TGI (UACC-62 melanoma): > 100 µM
TGI (HS 578T breast): > 100 µM
TGI (KM12 colon): > 100 µM
TGI (SK-OV-3 ovarian): > 100 µM
TGI (MOLT-4 leukemia): > 100 µM
TGI (EKVX NSCLC): > 100 µM
TGI (MDA-MB-435): > 100 µM
TGI (SK-MEL-28 melanoma): > 100 µM
TGI (RPMI-8226 leukemia): > 100 µM
TGI (NCI-H226 lung): > 100 µM
TGI (UACC-257 melanoma): > 100 µM
TGI (OVCAR-5 ovarian): > 100 µM

COc1cccc(/C=C2/Sc3scc(-c4ccccc4)[n+]3C2=O)c1O
TGI (CCRF-CEM leukemia): 30.4 µM
TGI (TK-10 renal): 68.4 µM
TGI (UACC-62 melanoma): 30.5 µM
TGI (HS 578T breast): > 100 µM
TGI (KM12 colon): 40.4 µM
TGI (SK-OV-3 ovarian): 70.4 µM
TGI (MOLT-4 leukemia): 49.5 µM
TGI (EKVX NSCLC): 64.6 µM
TGI (MDA-MB-435): > 100 µM
TGI (SK-MEL-28 melanoma): 40.9 µM
TGI (NCI-H226 lung): 40.5 µM
TGI (BT-549 breast): 45.1 µM
TGI (UACC-257 melanoma): 44.9 µM
TGI (OVCAR-5 ovarian): > 100 µM

CC1(C)CS(=O)(=O)CC(C)(C)C(=N/N)/C1=N\N
TGI (SR leukemia): > 100 µM
TGI (TK-10 renal): > 100 µM
TGI (UACC-62 melanoma): > 100 µM
TGI (HS 578T breast): > 100 µM
TGI (KM12 colon): > 100 µM
TGI (SK-OV-3 ovarian): > 100 µM
TGI (EKVX NSCLC): > 100 µM
TGI (MDA-MB-435): > 100 µM
TGI (SK-MEL-28 melanoma): > 100 µM
TGI (UACC-257 melanoma): > 100 µM
TGI (OVCAR-5 ovarian): > 100 µM

CN(C)CCCNC(=O)N/N=C/c1cccc([N+](=O)[O-])c1
TGI (CCRF-CEM leukemia): > 100 µM
TGI (TK-10 renal): > 100 µM
TGI (UACC-62 melanoma): > 100 µM
TGI (KM12 colon): > 100 µM
TGI (SK-OV-3 ovarian): > 100 µM
TGI (MOLT-4 leukemia): > 100 µM
TGI (SK-MEL-28 melanoma): > 100 µM
TGI (NCI-H226 lung): > 100 µM
TGI (UACC-257 melanoma): > 100 µM

CC12NN=NC1C(=O)NC2=O (centres undefined)
TGI (CCRF-CEM leukemia): > 100 µM
TGI (SR leukemia): > 100 µM
TGI (TK-10 renal): > 100 µM
TGI (UACC-62 melanoma): > 100 µM
TGI (KM12 colon): > 100 µM
TGI (SK-OV-3 ovarian): > 100 µM
TGI (MOLT-4 leukemia): > 100 µM
TGI (EKVX NSCLC): > 100 µM
TGI (SK-MEL-28 melanoma): > 100 µM
TGI (RPMI-8226 leukemia): > 100 µM
TGI (NCI-H226 lung): > 100 µM
TGI (UACC-257 melanoma): > 100 µM

CCC1(CC)CC(=NNS(=O)(=O)c2ccc(C)cc2)C1
TGI (CCRF-CEM leukemia): > 100 µM
TGI (TK-10 renal): > 100 µM
TGI (UACC-62 melanoma): > 100 µM
TGI (HS 578T breast): > 100 µM
TGI (KM12 colon): > 100 µM
TGI (SK-OV-3 ovarian): > 100 µM
TGI (MOLT-4 leukemia): > 100 µM
TGI (EKVX NSCLC): > 100 µM
TGI (MDA-MB-435): > 100 µM
TGI (SK-MEL-28 melanoma): > 100 µM
TGI (NCI-H226 lung): > 100 µM
TGI (BT-549 breast): > 100 µM
TGI (UACC-257 melanoma): > 100 µM
TGI (OVCAR-5 ovarian): > 100 µM

COc1cc(OC)c(/C=C2\N=C(C)N(Nc3nnc(NN4C(=O)/C(=C/c5c(OC)cc(OC)cc5OC)N=C4C)c4ccccc34)C2=O)c(OC)c1
TGI (CCRF-CEM leukemia): > 100 µM
TGI (SR leukemia): > 100 µM
TGI (UACC-62 melanoma): > 100 µM
TGI (KM12 colon): > 100 µM
TGI (MOLT-4 leukemia): > 100 µM
TGI (EKVX NSCLC): > 100 µM
TGI (SK-MEL-28 melanoma): > 100 µM
TGI (RPMI-8226 leukemia): > 100 µM
TGI (NCI-H226 lung): > 100 µM
TGI (UACC-257 melanoma): > 100 µM
TGI (OVCAR-5 ovarian): > 100 µM

COc1ccc2[nH]c3c(c2c1)CCn1c-3nc2ccccc2c1=O
TGI (CCRF-CEM leukemia): > 25 µM
TGI (SR leukemia): > 25 µM
TGI (TK-10 renal): > 25 µM
TGI (HS 578T breast): > 25 µM
TGI (KM12 colon): > 25 µM
TGI (SK-OV-3 ovarian): > 25 µM
TGI (MOLT-4 leukemia): > 25 µM
TGI (EKVX NSCLC): > 25 µM
TGI (MDA-MB-435): > 25 µM
TGI (SK-MEL-28 melanoma): > 25 µM
TGI (RPMI-8226 leukemia): > 25 µM
TGI (UACC-257 melanoma): > 25 µM
TGI (OVCAR-5 ovarian): > 25 µM

O=c1cc(-c2ccccc2)[nH]c2cc(O)ccc12
TGI (CCRF-CEM leukemia): 42.6 µM
TGI (SR leukemia): 62.9 µM
TGI (TK-10 renal): > 100 µM
TGI (UACC-62 melanoma): 46.5 µM
TGI (KM12 colon): 50.7 µM
TGI (SK-OV-3 ovarian): 90.7 µM
TGI (MOLT-4 leukemia): 54.7 µM
TGI (EKVX NSCLC): > 100 µM
TGI (SK-MEL-28 melanoma): > 100 µM
TGI (RPMI-8226 leukemia): 37.6 µM
TGI (NCI-H226 lung): > 100 µM
TGI (UACC-257 melanoma): 48.2 µM
TGI (OVCAR-5 ovarian): > 100 µM
